For experiment [1], the target named is T1, truncated human beta-secretase (residues 1-458, His6-tagged at the C-terminus) (Homo sapiens, UniProt P56817).
T1 construct: truncated human beta-secretase (residues 1-458, His6-tagged at the C-terminus); His6 (C); made in house; host or cells: insect cells D. melanogaster S2 (baculovirus expression system (so in the source))
As to the kind of experiment: BACE fluorescence quench assay. In kind it is biochemical. Conditions: in vitro enzyme activity, BACE fluorescence assay, pH 4.5; read-out: IC50.

Experiment [2] can be described thus: BACE cell assay: soluble Amyloid Beta 1-40 (Aβ 1-40) in culture media of H4-APPsw cells. It is filed as cell-based.
Where [3] appears, read: in vitro cell activity, H4-APPsw cells, secreted Aβ 1-40, overnight treatment, read-out: IC50.

Data on 31 molecules can be found in patent US8450308B2 (Vitae Pharmaceuticals, Inc., priority 2008, dated 2013).

Where two headings read alike, the source gives them in different places.

T1 sequence (P56817 22-458): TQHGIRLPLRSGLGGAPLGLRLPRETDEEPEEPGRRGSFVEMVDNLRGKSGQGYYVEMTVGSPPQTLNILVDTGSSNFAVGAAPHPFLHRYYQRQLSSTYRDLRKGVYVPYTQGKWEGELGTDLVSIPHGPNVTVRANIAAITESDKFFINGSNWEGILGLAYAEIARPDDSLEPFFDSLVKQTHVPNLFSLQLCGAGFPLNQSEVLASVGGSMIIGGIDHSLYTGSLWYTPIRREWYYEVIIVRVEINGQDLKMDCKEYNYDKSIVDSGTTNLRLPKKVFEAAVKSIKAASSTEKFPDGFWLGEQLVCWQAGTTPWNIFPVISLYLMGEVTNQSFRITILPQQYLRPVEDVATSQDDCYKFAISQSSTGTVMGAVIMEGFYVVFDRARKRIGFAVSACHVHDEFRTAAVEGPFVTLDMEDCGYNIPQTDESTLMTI

`CN1C(=O)C2(CC3(CCCOC3)Oc3ccc(-c4cc(C#N)ccc4F)cc32)N=C1N` (centres unmarked) [Compound 288]: the IC50 in experiment [1] and in experiment [2] (setting [3]) was 0.1 to 0.5 µM in each case.

With `CN1C(=O)C2(CC3(CCCOC3)Oc3ccc(-c4cccc(Cl)c4)cc32)N=C1N` (centres unmarked) [Compound 290], the IC50 was in the range of 0.1 to 0.5 µM in experiment [1] and 0.5 to 1 µM in experiment [2] (setting [3]).

For `CN1O[C@]2(C[C@H]([C@H]3CCOC(C)(C)C3)Oc3ccc(-c4cccc(C#N)c4)cc32)N=C1N` [Compound 293], the IC50 was in the range of 0.1 to 0.5 µM in experiment [1] and 1 to 5 µM in experiment [2] (setting [3]).

In the case of `CN1OC2(CC(C3CCOC(C)(C)C3)Oc3ccc(-c4cccc(Br)c4)cc32)N=C1N` (centres unmarked) [Compound 294], the IC50 in experiment [1] is 0.1 to 0.5 µM; in experiment [2] (setting [3]) it was 1 to 5 µM.

On to `CN1OC2(C[C@H]([C@H]3CCOC(C)(C)C3)Oc3ccc(-c4cc(F)cc(Cl)c4)cc32)N=C1N` (some centres unmarked) [Compound 295], for which the IC50 is 0.1 to 0.5 µM in experiment [1] and 1 to 5 µM in experiment [2] (setting [3]).

Take `CN1OC2(CC(C3CCOC(C)(C)C3)Oc3ccc(-c4cccc(C(F)(F)F)c4)cc32)N=C1N` (centres unmarked) [Compound 297]: the IC50 in experiment [1] is 0.1 to 0.5 µM; in experiment [2] (setting [3]) it was 1 to 5 µM.

For the molecule `CC1CC[C@]2(CO1)C[C@]1(N=C(N)N(C)O1)c1cc(-c3cc(F)cc(Cl)c3)ccc1O2` (some centres unmarked) [Compound 298], the IC50 in experiment [1] was 0.1 to 0.5 µM; in experiment [2] (setting [3]), 1 to 5 µM.

As for `CN1OC2(C[C@H]([C@@H]3CCOC(C)(C)C3)Oc3ccc(-c4cc(F)cc(Cl)c4)cc32)N=C1N` (some centres unmarked) [Compound 299], the IC50 in experiment [1] lay in the range of 0.1 to 0.5 µM; in experiment [2] (setting [3]), 1 to 5 µM.

On to `CC1CC[C@]2(CO1)C[C@]1(N=C(N)N(C)O1)c1cc(-c3cccc(Cl)c3)ccc1O2` (some centres unmarked) [Compound 303], for which the results for the IC50 in experiment [1] and in experiment [2] (setting [3]) were 0.1 to 0.5 µM and 1 to 5 µM, respectively.

For `CN1OC2(C[C@@H](C34CCC(CC3)OC4)Oc3ccc(-c4cccc(C#N)c4)cc32)N=C1N` (some centres unmarked) [Compound 305], the IC50 lay within 0.1 to 0.5 µM in experiment [1] and 5 to 10 µM in experiment [2] (setting [3]).

Turning to `CN1OC2(C[C@H]([C@@H]3CCOC(C)(C)C3)Oc3ccc(-c4cccc(C#N)c4F)cc32)N=C1N` (some centres unmarked) [Compound 306], the IC50 was in the range of 0.1 to 0.5 µM in experiment [1] and 1 to 5 µM in experiment [2] (setting [3]).

As to `CN1OC2(CC3(CCCc4ccccc4C3)Oc3ccc(C#CC(C)(C)C)cc32)N=C1N` (centres unmarked) [Compound 308], the figures for the IC50 in experiment [1] and in experiment [2] (setting [3]) were 0.1 to 0.5 µM and 1 to 5 µM, respectively.

For `COc1ccc2c(c1)CCC[C@@]1(C2)C[C@@]2(N=C(N)N(C)O2)c2cc(-c3cccc(C#N)c3)ccc2O1` [Compound 311], the results for the IC50 in experiment [1] and in experiment [2] (setting [3]) were 0.1 to 0.5 µM and 0.5 to 1 µM, respectively.

Regarding `CN1OC2(CC3(CCC(c4ccccc4)CC3)Oc3ccc(-c4cccc(C#N)c4)cc32)N=C1N` (centres unmarked) [Compound 313], the IC50 in experiment [1] lay within 0.1 to 0.5 µM; in experiment [2] (setting [3]) it was 1 to 5 µM.

Consider `CN1C(=O)C2(CC3(CCCOC3)Oc3ccc(-c4cc(F)cc(F)c4)cc32)N=C1N` (centres unmarked) [Compound 314], for which the IC50 was in the range of 0.1 to 0.5 µM in experiment [1] and 0.5 to 1 µM in experiment [2] (setting [3]).

For `CN1OC2(CC3(CCCc4ccccc4C3)Oc3ccc(C#CC4CCCC4)cc32)N=C1N` (centres unmarked) [Compound 317], the IC50 was 0.1 to 0.5 µM in experiment [1] and 1 to 5 µM in experiment [2] (setting [3]).

For `CN1OC2(CC3(CCCc4ncccc43)Oc3ccc(-c4cccc(C#N)c4)cc32)N=C1N` (centres unmarked) [Compound 320], the IC50 in experiment [1] lay within 0.1 to 0.5 µM; in experiment [2] (setting [3]), 1 to 5 µM.

Consider `CN1OC2(CC3(CCc4ccccc4C3)Oc3ccc(-c4cccc(C#N)c4)cc32)N=C1N` (centres unmarked) [Compound 324], for which the 50% inhibitory concentration (IC50) in experiment [1] is 0.1 to 0.5 µM; in experiment [2] (setting [3]), 5 to 10 µM.

As for `CC1CC[C@]2(CO1)C[C@]1(N=C(N)N(C)O1)c1cc(-c3ccc(F)c(Cl)c3)ccc1O2` (some centres unmarked) [Compound 330], the half-inhibitory concentration (IC50) in experiment [1] was in the range of 0.1 to 0.5 µM; in experiment [2] (setting [3]) it was 1 to 5 µM.

In the case of `CN1O[C@@]2(C[C@H](C3CCOc4ccccc43)Oc3ccc(-c4cccc(C#N)c4)cc32)N=C1N` (some centres unmarked) [Compound 331], the IC50 in experiment [1] was in the range of 0.1 to 0.5 µM; in experiment [2] (setting [3]), 5 to 10 µM.

Take `COc1cc(OC)cc(-c2ccc3c(c2)[C@]2(C[C@@]4(CCCOC4)O3)N=C(N)N(C)C2=O)c1` [Compound 333]: the IC50 in experiment [1] was in the range of 0.1 to 0.5 µM; in experiment [2] (setting [3]), 1 to 5 µM.

On to `CN1C(=O)C2(CC3(CCCOC3)Oc3ccc(-c4cccc(C(F)(F)F)c4)cc32)N=C1N` (centres unmarked) [Compound 338], for which the IC50 in experiment [1] was 0.1 to 0.5 µM; in experiment [2] (setting [3]), 1 to 5 µM.

On to `CN1OC2(C[C@H](C34CCC(CC3)OC4)Oc3ccc(-c4cccc(C#N)c4)cc32)N=C1N` (some centres unmarked) [Compound 345], for which the IC50 in experiment [1] is 0.1 to 0.5 µM; in experiment [2] (setting [3]), 5 to 10 µM.

With `CN1O[C@]2(C[C@@H]([C@H]3CCCOC3)Oc3ccc(-c4cc(F)cc(F)c4)cc32)N=C1N` [Compound 348], the IC50 lay within 0.5 to 1 µM in experiment [1] and 5 to 10 µM in experiment [2] (setting [3]).

For the molecule `CN1OC2(CC3(CCCc4ccccc4C3)Oc3ccc(Br)cc32)N=C1N` (centres unmarked) [Compound 349], the 50% inhibitory concentration (IC50) in experiment [1] is 0.5 to 1 µM; in experiment [2] (setting [3]) it was 1 to 5 µM.

Turning to `CN1OC2(CC3(CCCc4ccccc4C3)Oc3ccc(-c4ccc5cc[nH]c5c4)cc32)N=C1N` (centres unmarked) [Compound 352], the IC50 in experiment [1] lay within 0.5 to 1 µM; in experiment [2] (setting [3]), 1 to 5 µM.

Regarding `CN1OC2(CC3(CCN(c4ncccn4)CC3)Oc3ccc(-c4cccc(C#N)c4)cc32)N=C1N` (centres unmarked) [Compound 353], the IC50 in experiment [1] fell in the range of 0.5 to 1 µM; in experiment [2] (setting [3]) it was 10 to 50 µM.

On to `CN1OC2(CC3(CCCN(c4ccccc4)C3)Oc3ccc(-c4cccc(C#N)c4)cc32)N=C1N` (centres unmarked) [Compound 355], for which the IC50 was in the range of 0.5 to 1 µM in experiment [1] and 5 to 10 µM in experiment [2] (setting [3]).

As to `COc1cccc2c1CCCC1(C2)CC2(N=C(N)N(C)O2)c2cc(Br)ccc2O1` (centres unmarked) [Compound 373], the IC50 was 0.5 to 1 µM in experiment [1] and 5 to 10 µM in experiment [2] (setting [3]).

Turning to `CN1OC2(CC3(CCCc4ccccc43)Oc3ccc(-c4cc(F)cc(F)c4)cc32)N=C1N` (centres unmarked) [Compound 402], the values for the IC50 in experiment [1] and in experiment [2] were 1 to 5 µM and 10 to 50 µM, respectively.

Take `Cc1cc2c(cc1-c1cccc(C#N)c1)C1(CC3(CCCOC3)O2)N=C(N)N(C)O1` (centres unmarked) [Compound 432, 3-(3″-amino-2″,7-dimethyl-2″H-spiro[spiro[chroman-2,1′-(3-oxacyclohexane)]-4,5′-[1,2,4]oxadiazole]-6-yl)benzonitrile]: the values for the IC50 in experiment [1] and in experiment [2] (setting [3]) were 5 to 10 µM and 10 to 50 µM, respectively.
